Laboratory results: PMC12670426 (Journal of Medicinal Chemistry, 2025)
Read-outs that look alike come from different tables or passages of the source.

Legend:
[1] = target: T1, human galectin-3C (Gal-3C, C-terminal CRD of galectin-3) (Homo sapiens, UniProt P17931); experiment: Competitive fluorescence polarization assay, Gal-3C; format: binding
T1 construct: only the C-terminal domain was used (Gal-3C); 6xHis tag with TEV protease site (N, cleaved yes); made in house; host or cells: BL21 Escherichia coli (pET-15b)
T1 sequence (P17931 118-248 limits assumed): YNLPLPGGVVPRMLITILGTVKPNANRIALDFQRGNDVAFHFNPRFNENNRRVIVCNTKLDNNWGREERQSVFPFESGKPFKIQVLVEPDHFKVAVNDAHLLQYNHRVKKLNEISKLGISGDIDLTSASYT
Summary of the method: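 Competitive fluorescence polarization (anisotropy) with a fluorescent probe; full-length Gal-1 and C-terminal CRD construct of Gal-3. Read after 30–60 min incubation at 25 °C. Kd fitted with Wang's exact cubic competitive model, rmin/rmax fixed from direct binding.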

[2] = Plasma protein binding assay (rapid equilibrium dialysis), human plasma; format: in vitro ADME; conditions: fraction bound, read-out: plasma protein binding Fb human (converted)
Method: Test compound (10 μM) was incubated at 37 °C for 4 h with mouse, rat, or human plasma (Biowest) in the donor well of a rapid equilibrium dialysis plate (Thermo Fisher Scientific). PBS was placed in the acceptor well. To stop the assay, samples were collected from both wells, and an equal volume of plasma was added to the PBS sample, and vice versa. Proteins were then precipitated by adding three volumes of ice-cold methanol. Samples were mixed gently, kept at −20 °C for 30 min, and then stored at 4 °C overnight. The next day, the samples were centrifuged, and the supernatants were diluted with four volumes of 30% methanol in water. The samples were then analyzed using the Echo-MS system (SCIEX) with MRM transition monitoring, except for compound 3af, which was analyzed by LC–MS/MS as described in the plasma stability assay.

[3] = Cytotoxicity assay, THP1; format: cell-based; conditions: human, THP1 cells, viability dye, flow cytometry
Method: To evaluate in vitro cytotoxicity and support its potential application in inflammatory and fibrotic disease models, the following panel of cell lines, representing the relevant biological systems, was used: HEK293, HepG2, THP1, Jurkat E6.1, and LX2. HEK293, HepG2, and Jurkat E6.1 cells were seeded at 400,000 cells/mL, THP1 cells at 500,000 cells/mL, and LX2 cells at 200,000 cells/mL in 96-well plates (cell culture-treated, VWR) in 100 μL/well. Cells were treated with the tested compounds in a serial dilution (300, 100, 33.3, 11.1, and 3.7 μM) for 24 h. Untreated cells served as negative controls to establish the baseline viability threshold. Cell viability was assessed using a viability dye (Zombie Violet Fixable Viability Kit, BioLegend) following the manufacturer’s instructions and analyzed by flow cytometry (see below).
Cells or beads from screening assays prepared for flow cytometry were analyzed by the CytoFlex S instrument (Beckman Coulter). Data acquisition was performed using CytExpert software (v2.5, Beckman Coulter). Debris was excluded by forward and side scatter gating, followed by doublet exclusion. Data were analyzed using FlowJo software (v10, BD Biosciences).

[4] = system: LPS-stimulated macrophage-like THP1 cells (TNFα secretion); experiment: Anti-inflammatory potential: TNFα secretion in LPS-stimulated PMA-differentiated THP1 cells; format: cell-based, human; conditions: (+)PMA THP1, 1 μg/mL LPS, 24 h, up to 300 μM
Method: Cells were differentiated overnight into macrophage-like phenotypes by treatment with 10 ng/mL PMA and subsequently stimulated with 1 μg/mL lipopolysaccharide (LPS; Invitrogen, Thermo Fisher Scientific) to induce a proinflammatory response. […] After 24 h of LPS and compound exposure, cell culture supernatants were collected and analyzed for TNFα levels using a bead-based multiplex immunoassay (ProcartaPlex Human Basic Kit and TNFα Human ProcartaPlex Simplex Kit, both Invitrogen, Thermo Fisher Scientific). Flow cytometry readout was used as previously described. TNFα concentrations were calculated using a standard curve generated in GraphPad Prism 10 (GraphPad Software, San Diego, CA). Cells or beads from screening assays prepared for flow cytometry were analyzed by the CytoFlex S instrument (Beckman Coulter). Data acquisition was performed using CytExpert software (v2.5, Beckman Coulter). Debris was excluded by forward and side scatter gating, followed by doublet exclusion. Data were analyzed using FlowJo software (v10, BD Biosciences).

IC50 ([1]; CSV supplement, unrounded mean, read-out: Gal3C_IC50_mean_uM): 57.7 nM
Kd ([1]; CSV supplement, unrounded mean, read-out: Gal3C_Kd_mean_uM): 5.71 nM
Kd ([1]; competitive fluorescence polarization, mean ± SD, read-out: Kd Gal-3C): 5.7 ± 2 nM
IC50 ([1]; four-parameter logistic model, mean ± SD, read-out: IC50 Gal-3C): 58 ± 10 nM
fraction unbound at 4 h, 10 μM [2]: 0.55
SMILES: CC(=O)N(c1cc(C(=O)O)cc2[nH]ccc12)[C@@H]1O[C@H](CO)[C@@H](S[C@@H]2O[C@H](CO)[C@H](O)[C@H](n3cc(-c4cccc(F)c4)nn3)[C@H]2O)[C@H](O)[C@H]1O [Compound 11, N-[4-S-(3-Deoxy-3-(4-(3-fluorophenyl)-1H-1,2,3-triazol-1-yl)-β-D-galactopyranosyl)-4-thio-β-D-glucopyranosyl]-N-(6-carboxy-1H-indol-4-yl)acetamide]
CC50 at 24 h [3]: > 300000 nM
LPS-induced TNFα secretion [4]: no suppression
